We go through two molecules from article doi:10.1101/2021.11.20.466133v3 (biorxiv, 2022).

Experiment [1] addresses T1, MsDisA (Mycolicibacterium smegmatis, UniProt A0R564). Nature of the experiment: biochemical.
The target in experiment [2] is T1, MsDisA. The conditions noted are these: substrate inhibition by ATP; pH 7.5; 37 °C; 5 mM MgCl2.
A further experiment deals with MsPDE (Mycolicibacterium smegmatis, UniProt A0QVM9). Description: HPLC AMP formation, substrate inhibition model. Format: biochemical. Particulars: substrate inhibition by c-di-AMP; pH 7.5; 5 mM MgCl2.
Chain of MsPDE (A0QVM9 1-340): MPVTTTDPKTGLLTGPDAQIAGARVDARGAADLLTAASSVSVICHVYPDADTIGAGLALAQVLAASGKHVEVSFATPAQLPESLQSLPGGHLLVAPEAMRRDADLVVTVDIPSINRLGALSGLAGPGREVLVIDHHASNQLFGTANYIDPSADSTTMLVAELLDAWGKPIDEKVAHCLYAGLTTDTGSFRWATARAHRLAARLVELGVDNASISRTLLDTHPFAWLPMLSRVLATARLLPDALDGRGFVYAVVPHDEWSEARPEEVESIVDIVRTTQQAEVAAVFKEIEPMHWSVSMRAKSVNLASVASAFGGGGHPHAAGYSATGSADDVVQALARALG

T1 sequence (A0R564 whole entry): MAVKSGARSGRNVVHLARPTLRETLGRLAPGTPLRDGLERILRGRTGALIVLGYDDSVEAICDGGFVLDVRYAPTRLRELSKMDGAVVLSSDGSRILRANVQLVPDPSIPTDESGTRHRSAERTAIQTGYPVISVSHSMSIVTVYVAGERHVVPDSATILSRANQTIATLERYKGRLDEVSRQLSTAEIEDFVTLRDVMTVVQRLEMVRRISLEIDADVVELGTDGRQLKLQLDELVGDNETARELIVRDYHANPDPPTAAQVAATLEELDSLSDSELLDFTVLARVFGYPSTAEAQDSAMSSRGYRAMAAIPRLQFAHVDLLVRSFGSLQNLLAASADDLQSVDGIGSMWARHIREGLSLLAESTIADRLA

As usually defined, the Kd is the constant that tells how readily two partners part at equilibrium. The low end stands for higher affinity, the high end for lower affinity. As for `Nc1ncnc2c1ncn2[C@@H]1O[C@H](COP(=O)(O)OP(=O)(O)OP(=O)(O)O)[C@@H](O)[C@H]1O` [ATP], binding on MsDisA [1] was characterised by a dissociation constant (Kd) of 2.4 µM. The molecule further came in with a Ki at MsDisA [2] of 1430 µM.
As to `Nc1ncnc2c1ncn2[C@@H]1O[C@@H]2COP(=O)(O)O[C@H]3[C@@H](O)[C@H](n4cnc5c(N)ncnc54)O[C@@H]3COP(=O)(O)O[C@H]2[C@H]1O` [c-di-AMP], the Ki at MsPDE was 1120 µM.
